Experimental data published in US20220096436A1, “COMBINATION PRODUCT FOR THE TREATMENT OF CANCER” (Debiopharm International S.A., priority 2019, published 2022).

Key:
CT-26 colorectal cancer = assay: Therapeutic efficacy in CT-26 colorectal cancer mouse syngeneic model; assay type: in vivo; details: Debio 1143 combined with IDO inhibitor INCB024360
Protocol: (§1) The therapeutic efficacy of Debio 1143 combined with an anti-CTLA4 antibody was tested in a TS/A breast cancer mouse syngeneic model. Further, the therapeutic efficacy of Debio 1143 combined with an IDO inhibitor (INCB024360) was tested in a CT-26 colorectal cancer mouse syngeneic model.

B16F10 melanoma tumors = assay: Anti-tumor efficacy in subcutaneous B16F10 mouse melanoma syngeneic model; assay type: in vivo, C57BL/6 mice; details: for TGI: vs vehicle; for mean tumor volume: vehicle group 1529 mm^3
Protocol: C57BL/6 mice were s.c. injected with 2×10^5 B16F10 tumor cells (see, for example, Bobek et al., 2010. Anticancer Res. 30(12):4799-803) and treatments started at a mean group tumor size of 94 mm^3 (n=8/group). Debio 1143 at 100 and 200 mg/kg p.o. was given on 5 days/week in combination with 10 mg/kg i.p. anti-PD1 twice weekly and compared to treatment with vehicle plus isotype antibody. In addition, the 100 mg/kg dose given twice weekly in combination with anti-PD1 at 10 mg/kg i.p. twice weekly was tested.

TS/A breast cancer = assay: Therapeutic efficacy in TS/A breast cancer mouse syngeneic model; assay type: in vivo; details: Debio 1143 combined with an anti-CTLA4 antibody
Protocol: as §1

[1] = nivolumab 3-10 mg/kg q2w monotherapy across tumor types, n=2,578; cited from earlier work
cancers = details: nivolumab monotherapy, 27 trials, n=5,551, cited from earlier work

Compound	combination therapy compared to the respective monotherapies (CT-26 colorectal cancer)	TGI (B16F10 melanoma tumors; day 19, Debio 1143 100 mg/kg p.o. QD1-5 combined with anti-PD-1 10 mg/kg, P=0.155) [%]	mean tumor volume (B16F10 melanoma tumors; day 19, Debio 1143 200 mg/kg p.o. 5 days/week in combination with 10 mg/kg anti-PD-1) [mm^3]	TGI (B16F10 melanoma tumors; day 19, Debio 1143 200 mg/kg p.o. 5 days/week in combination with 10 mg/kg anti-PD-1, P=0.005) [%]	mean tumor volume (B16F10 melanoma tumors; day 19, bi-weekly Debio 1143 100 mg/kg in combination with anti-PD-1 10 mg/kg) [mm^3]	TGI (B16F10 melanoma tumors; day 19, bi-weekly Debio 1143 100 mg/kg in combination with anti-PD-1 10 mg/kg, P=0.757) [%]	mean tumor volume (B16F10 melanoma tumors; day 19 from tumor inoculation, Debio 1143 100 mg/kg p.o. QD1-5 (5 days/week) combined with anti-PD-1 10 mg/kg i.p. twice weekly) [mm^3]	combination therapy compared to the respective monotherapies (TS/A breast cancer)	adverse reaction frequency: diarrhea [1] [%]	adverse reaction frequency: fatigue [1] [%]	adverse reaction frequency: pruritus [1] [%]	adverse reaction frequency: rash [1] [%]	pooled objective response rate (ORR) (cancers; 95% CI 21-31) [%]	6-month PFS rate (cancers; 95% CI 34-46) [%]	1-year OS rate (cancers; 95% CI 43-62) [%]
CN[C@@H](C)C(=O)N[C@H]1CN(C(=O)CC(C)C)CC[C@H]2CC[C@@H](C(=O)NC(c3ccccc3)c3ccccc3)N2C1=O [Debio 1143, (5S,8S,10aR)-N-benzhydryl-5-((S)-2-(methylamino)propanamido)-3-(3-methylbutanoyl)-6-oxodecahydropyrrolo[1,2-a][1,5]diazocine-8-carboxamide]	did not lead to a statistically significant improvement	31	594	61	1396	9	1049	did not lead to a statistically significant improvement	–	–	–	–	–	–	–
nivolumab: fully human immunoglobulin G4 (IgG4) monoclonal antibody, which binds to the PD-1 receptor and blocks its interaction with PD-L1 and PD-L2	–	–	–	–	–	–	–	–	13	30	13	17	26	40	52
